Results as given in PMC5855688, “BC-Box Motif-Mediated Neuronal Differentiation of Somatic Stem Cells” (International Journal of Molecular Sciences, 2018).
“Also recorded” adds a separate entry of the source.

Experiments:
[1] = tested on: skin-derived precursors (SKPs); experiment: Neurite outgrowth / morphological evaluation of neuronal differentiation; type: cell-based, rat (neonate Wistar)
Method in brief: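 Neonatal Wistar rat dermal SKPs dissociated to single cells, plated at 50,000 cells/mL on poly-L-lysine in DMEM/F12 without serum or growth factors, with peptides at 1–5 μM, 37 °C, 5% CO2, three days or more. Scored by fraction of cells with neurites longer than soma diameter: +++ >50%, ++ 20–50%, + 5–19%, − <5%.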

[2] = tested on: skin-derived precursors (SKPs); experiment: Immunocytochemistry with anti-Neurofilament-H (NFH) antibody; type: cell-based, rat (neonate Wistar); settings: immunocytochemistry, peptides at 1 to 5 μM; mean ± SEM; vs VHL(157–171): p < 0.01 for VHL(157–168), p < 0.005 for TAT
Method: Rodent skin-derived precursor cells (SKPs), which can differentiate to neurons, were used. SKPs were previously isolated from the back dermis of neonate Wistar rats by the authors. These cells were cultured in growth medium composed of DMEM/F12 (1:1; Gibco, Grand Island, NY, USA) containing 2% B27 supplement (Gibco), 20 ng/mL epidermal growth factor (EGF; Upstate Biotechnology, Lake Placid, NY, USA), and 40 ng/mL bFGF (PeproTech EC Ltd., Rocky Hill, NJ, USA) in a humidified incubator at 37 °C with 5% CO2. The floating clusters of cultured cells were centrifuged and dissociated into a single-cell suspension by use of a Pasteur pipette with a flame-polished tip. These single cells were then re-suspended into at a concentration of 50,000 cells/mL for passage or experiments.
For neuronal differentiation, cells were dissociated into a single-cell suspension by use of a Pasteur pipette and re-suspended into a concentration of 50,000 cells/mL in DMEM/F12 without serum, neurotrophic factors or growth factors. Then, the cells were cultured on poly-L-lysine-coated dishes or cover glasses, and the synthesized peptides at concentrations from 1 to 5 μM were added to the culture medium and delivered into the cells. Three days or more later, the cells were used for morphological, immunocytochemical, immunohistochemical, electrophysiological and immunoprecipitation studies, as well as for Western blot analysis.
Cultured cells were fixed with 4% paraformaldehyde in PBS (Phosphate buffered saline) for 10 min at room temperature. Cells were incubated for 1 h at room temperature with primary antibodies. Antibodies against anti-MAP2 antibody (Sigma-Aldrich, St. Louis, MO, USA), anti-Neurofilment-H (NFH) antibody (Sigma-Aldrich), anti-NeuN antibody (Merk Millipore, Billerica, MA, USA), anti-GFAP antibody (DAKO, Santa Clara, CA, USA), anti-tyrosine hydroxylase (TH) antibody (Merk Millipore, Billerica, MA, USA), anti-choline acetyl transferase (ChAT) antibody (Abbiotec, San Diego, CA, USA), anti-glutamic acid decaboxylase (GAD) antibody (Enzo Life Sciences, Flamingdale, NY, USA), and anti-rhodopsin antibody (Santa Cruz, San Diego, CA, USA) were used. […] Nuclear counterstaining was done with DAPI (Molecular Probes, Eugene, OR, USA) or TO-PRO-3 (Molecular Probes), and observations were made with a fluorescence microscope system (FV300, Olympus, Tokyo, Japan). We counted the number of immuno-positive cells with a given antibody in 4 to 6 random non-overlapping visual fields (50–200 cells per field) in each experiment. […] The degree of positivity was expressed as the rate of immuno-positive cells to the total number of nuclei stained with DAP1 or TO-PRO-3.

rat brain = experiment: Immunohistochemistry (NeuN) of transplanted peptide-treated cells in rat brain; type: in vivo, rat (Wistar); settings: 1 × 10^5 peptide-treated cells transplanted into rat brain, 6 weeks; mean ± SEM; vs VHL(157–171): p < 0.01 for VHL(157–168), p < 0.005 for TAT
Method: To evaluate neuronal differentiation of transplanted cells in rat brains, immunohistochemical study was performed as described previously. Before grafting, cells were preincubated with red fluorescence PKH26PCL (Sigma, St. Louis, MO, USA). […] Rats were anesthetized with isoflurane before surgery, and 1 × 10^5 cells were transplanted into rat brain. The rats were perfused with periodate-lysine-paraformaldehyde solution 6 weeks after the transplantation. Their brains were subsequently dissected and postfixed in the same medium for 2 h, cryopreserved in 30% sucrose for 12 h, and then embedded in Tissue Tek OCT compound (Sakura, Tokyo, Japan). Cryostat coronal sections of 14-μm thickness were prepared for immunohistochemistry. For immunostaining, sections were incubated with primary antibody, anti-NeuN antibody, and then incubated in secondary antibody, FITC-conjugated anti-rabbit IgG. Counterstaining was done with DAPI. In immohistochemistry, observations were made with a confocal immunofluorescence microscope (FV300, Olympus, Tokyo, Japan).
Wistar rats (Clea, Tokyo, Japan) were used in all experiments and housed in a temperature controlled room on a 12-h day/night cycle with free access to food and water. All animal experimental procedures were approved by the Institutional Animal Use Committee of Yokohama City University (ID 153, 1 April 2015) and were in accordance with National Institutes of Health guidelines for care and use of laboratory animals.

## YARAAARQARATLKERCLQVVRSLVK [VHL(157–171), NDD in pVHL: BC-box motif plus five amino acids, conjugated with PTD]
[1]; BC-box motif plus five C-terminal amino acids peptides, delivered with TAT PTD, 1 to 5 μM
  Neurite Outgrowth Activity: +++ (above 50% of the cells showing neurite outgrowth)
[1]; Figure 2A, rates of cells having neurites, peptides at 1 to 5 μM, VHL157–168 vs VHL(157–171) p < 0.005
  Neurite Outgrowth Activity: showed neurite outgrowth activity to the same extent as VHL(155–171); also recorded: greatest of rate of cells having neurites
[2]
  Percentage of NFH-positive cells: 60.4 ± 6.4%
Rat brain
  Positive rates of NeuN: 42.5 ± 4.5%
